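Interpolation was linear, between the two tested concentrations surrounding the appropriate level; five concentrations were tested over 48 hours in 96-well plates. At the TGI there is no net growth.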
Columns and labels:
Assay in all cases: NCI tumour cell line growth inhibition, 48 h
786-0 renal = system: 786-0 renal
A498 renal = system: A498 renal
A549 NSCLC = system: A549 NSCLC
ACHN renal = system: ACHN renal
CAKI-1 renal = system: CAKI-1 renal
CCRF-CEM leukemia = system: CCRF-CEM leukemia
COLO 205 colon = system: COLO 205 colon
DU-145 prostate = system: DU-145 prostate
EKVX NSCLC = system: EKVX NSCLC
HCC-2998 colon = system: HCC-2998 colon
HCT-116 colon = system: HCT-116 colon
HL-60(TB) leukemia = system: HL-60(TB) leukemia
HOP-62 NSCLC = system: HOP-62 NSCLC
HOP-92 NSCLC = system: HOP-92 NSCLC
HS 578T breast = system: HS 578T breast
HT29 colon = system: HT29 colon
IGROV1 ovarian = system: IGROV1 ovarian
K-562 leukemia = system: K-562 leukemia
KM12 colon = system: KM12 colon
LOX IMVI melanoma = system: LOX IMVI melanoma
M14 melanoma = system: M14 melanoma
MALME-3M melanoma = system: MALME-3M melanoma
MCF7 breast = system: MCF7 breast
MDA-MB-231 breast = system: MDA-MB-231 breast
MDA-MB-435 = system: MDA-MB-435
MDA-N = system: MDA-N
MOLT-4 leukemia = system: MOLT-4 leukemia
NCI-H226 lung = system: NCI-H226 lung
NCI-H23 lung = system: NCI-H23 lung
NCI-H460 lung = system: NCI-H460 lung
NCI-H522 lung = system: NCI-H522 lung
NCI/ADR-RES ovarian = system: NCI/ADR-RES ovarian
OVCAR-3 ovarian = system: OVCAR-3 ovarian
OVCAR-4 ovarian = system: OVCAR-4 ovarian
OVCAR-5 ovarian = system: OVCAR-5 ovarian
OVCAR-8 ovarian = system: OVCAR-8 ovarian
PC-3 prostate = system: PC-3 prostate
RPMI-8226 leukemia = system: RPMI-8226 leukemia
RXF 393 renal = system: RXF 393 renal
SF-268 CNS = system: SF-268 CNS
SF-295 CNS = system: SF-295 CNS
SF-539 CNS = system: SF-539 CNS
SK-MEL-28 melanoma = system: SK-MEL-28 melanoma
SK-MEL-5 melanoma = system: SK-MEL-5 melanoma
SK-OV-3 ovarian = system: SK-OV-3 ovarian
SN12C renal = system: SN12C renal
SNB-19 CNS = system: SNB-19 CNS
SNB-75 CNS = system: SNB-75 CNS
SR leukemia = system: SR leukemia
SW-620 colon = system: SW-620 colon
T-47D breast = system: T-47D breast
TK-10 renal = system: TK-10 renal
UACC-257 melanoma = system: UACC-257 melanoma
UACC-62 melanoma = system: UACC-62 melanoma
UO-31 renal = system: UO-31 renal
BT-549 breast = system: BT-549 breast
HCT-15 colon = system: HCT-15 colon
SK-MEL-2 melanoma = system: SK-MEL-2 melanoma
U251 CNS = system: U251 CNS

Molecule `CC(C)=CCNc1nc(Cl)nc2nc[nH]c12` has a TGI (786-0 renal) greater than 100 µM, a TGI (A498 renal) greater than 100 µM and a TGI (A549 NSCLC) greater than 100 µM. For the same molecule, the TGI (ACHN renal) was greater than 100 µM, the TGI (CAKI-1 renal) was greater than 100 µM and the TGI (CCRF-CEM leukemia) was greater than 100 µM. For the same molecule, the TGI (COLO 205 colon) was greater than 100 µM, the TGI (DU-145 prostate) was greater than 100 µM and the TGI (EKVX NSCLC) was greater than 100 µM. It also gave a TGI (HCC-2998 colon) greater than 100 µM, a TGI (HCT-116 colon) of 69.8 µM and a TGI (HL-60(TB) leukemia) greater than 100 µM. It also gave a TGI (HOP-62 NSCLC) of 79.2 µM, a TGI (HOP-92 NSCLC) of 87.5 µM and a TGI (HS 578T breast) greater than 100 µM. It also gave a TGI (HT29 colon) greater than 100 µM, a TGI (IGROV1 ovarian) greater than 100 µM and a TGI (K-562 leukemia) greater than 100 µM. The TGI (KM12 colon) was greater than 100 µM, the TGI (LOX IMVI melanoma) was greater than 100 µM and the TGI (M14 melanoma) was greater than 100 µM. It also gave a TGI (MALME-3M melanoma) greater than 100 µM, a TGI (MCF7 breast) greater than 100 µM and a TGI (MDA-MB-231 breast) of 68.2 µM. It also gave a TGI (MDA-MB-435) greater than 100 µM, a TGI (MDA-N) greater than 100 µM and a TGI (MOLT-4 leukemia) greater than 100 µM. The TGI (NCI-H226 lung) was greater than 100 µM, the TGI (NCI-H23 lung) was greater than 100 µM and the TGI (NCI-H460 lung) was 68.8 µM. The TGI (NCI-H522 lung) was greater than 100 µM, the TGI (NCI/ADR-RES ovarian) was greater than 100 µM and the TGI (OVCAR-3 ovarian) was greater than 100 µM. It also gave a TGI (OVCAR-4 ovarian) greater than 100 µM, a TGI (OVCAR-5 ovarian) greater than 100 µM and a TGI (OVCAR-8 ovarian) greater than 100 µM. It also gave a TGI (PC-3 prostate) greater than 100 µM, a TGI (RPMI-8226 leukemia) greater than 100 µM and a TGI (RXF 393 renal) of 62 µM. It also gave a TGI (SF-268 CNS) greater than 100 µM, a TGI (SF-295 CNS) greater than 100 µM and a TGI (SF-539 CNS) greater than 100 µM. For the same molecule, the TGI (SK-MEL-28 melanoma) was greater than 100 µM, the TGI (SK-MEL-5 melanoma) was greater than 100 µM and the TGI (SK-OV-3 ovarian) was 46 µM. The TGI (SN12C renal) was greater than 100 µM, the TGI (SNB-19 CNS) was greater than 100 µM and the TGI (SNB-75 CNS) was greater than 100 µM. For the same molecule, the TGI (SR leukemia) was greater than 100 µM, the TGI (SW-620 colon) was greater than 100 µM and the TGI (T-47D breast) was greater than 100 µM. For the same molecule, the TGI (TK-10 renal) was greater than 100 µM, the TGI (UACC-257 melanoma) was greater than 100 µM and the TGI (UACC-62 melanoma) was greater than 100 µM. For the same molecule, the TGI (UO-31 renal) was greater than 100 µM.
Molecule `Cc1nn(-c2ccccc2)c(C)c1/C=N/N=C1\S/C(=C\c2ccc(Cl)cc2)C(=O)N1c1ccccc1` has a TGI (786-0 renal) of 7.89 µM, a TGI (A498 renal) greater than 100 µM and a TGI (A549 NSCLC) greater than 100 µM. For the same molecule, the TGI (ACHN renal) was greater than 100 µM, the TGI (BT-549 breast) was greater than 100 µM and the TGI (CAKI-1 renal) was greater than 100 µM. For the same molecule, the TGI (CCRF-CEM leukemia) was greater than 100 µM, the TGI (COLO 205 colon) was greater than 100 µM and the TGI (DU-145 prostate) was greater than 100 µM. For the same molecule, the TGI (EKVX NSCLC) was greater than 100 µM, the TGI (HCT-116 colon) was greater than 100 µM and the TGI (HCT-15 colon) was greater than 100 µM. For the same molecule, the TGI (HL-60(TB) leukemia) was 24.4 µM, the TGI (HOP-62 NSCLC) was greater than 100 µM and the TGI (HOP-92 NSCLC) was greater than 100 µM. It also gave a TGI (HS 578T breast) of 60.9 µM, a TGI (HT29 colon) greater than 100 µM and a TGI (IGROV1 ovarian) greater than 100 µM. The TGI (K-562 leukemia) was greater than 100 µM, the TGI (KM12 colon) was greater than 100 µM and the TGI (LOX IMVI melanoma) was greater than 100 µM. It also gave a TGI (M14 melanoma) greater than 100 µM, a TGI (MALME-3M melanoma) greater than 100 µM and a TGI (MCF7 breast) greater than 100 µM. The TGI (MDA-MB-231 breast) was greater than 100 µM, the TGI (MDA-MB-435) was greater than 100 µM and the TGI (MDA-N) was greater than 100 µM. For the same molecule, the TGI (MOLT-4 leukemia) was 27.2 µM, the TGI (NCI-H226 lung) was greater than 100 µM and the TGI (NCI-H23 lung) was greater than 100 µM. For the same molecule, the TGI (NCI-H460 lung) was greater than 100 µM, the TGI (NCI/ADR-RES ovarian) was greater than 100 µM and the TGI (OVCAR-3 ovarian) was greater than 100 µM. For the same molecule, the TGI (OVCAR-4 ovarian) was 4.74 µM, the TGI (OVCAR-5 ovarian) was greater than 100 µM and the TGI (OVCAR-8 ovarian) was greater than 100 µM. For the same molecule, the TGI (PC-3 prostate) was greater than 100 µM, the TGI (RPMI-8226 leukemia) was greater than 100 µM and the TGI (RXF 393 renal) was 84.3 µM. For the same molecule, the TGI (SF-268 CNS) was greater than 100 µM, the TGI (SF-295 CNS) was greater than 100 µM and the TGI (SF-539 CNS) was greater than 100 µM. For the same molecule, the TGI (SK-MEL-2 melanoma) was greater than 100 µM, the TGI (SK-MEL-28 melanoma) was greater than 100 µM and the TGI (SK-MEL-5 melanoma) was greater than 100 µM. For the same molecule, the TGI (SK-OV-3 ovarian) was greater than 100 µM, the TGI (SN12C renal) was greater than 100 µM and the TGI (SNB-19 CNS) was greater than 100 µM. The TGI (SNB-75 CNS) was 71.8 µM, the TGI (SW-620 colon) was greater than 100 µM and the TGI (T-47D breast) was greater than 100 µM. For the same molecule, the TGI (TK-10 renal) was greater than 100 µM, the TGI (U251 CNS) was greater than 100 µM and the TGI (UACC-257 melanoma) was greater than 100 µM. It also gave a TGI (UACC-62 melanoma) greater than 100 µM and a TGI (UO-31 renal) greater than 100 µM.
For `CC(=O)Nc1ccc(OC/C(N)=N/NC(=O)c2ccncc2)cc1`, the TGI (786-0 renal) was greater than 100 µM, the TGI (A498 renal) was greater than 100 µM and the TGI (A549 NSCLC) was greater than 100 µM. It also gave a TGI (ACHN renal) greater than 100 µM, a TGI (BT-549 breast) greater than 100 µM and a TGI (CAKI-1 renal) greater than 100 µM. It also gave a TGI (CCRF-CEM leukemia) greater than 100 µM, a TGI (COLO 205 colon) greater than 100 µM and a TGI (DU-145 prostate) greater than 100 µM. The TGI (EKVX NSCLC) was greater than 100 µM, the TGI (HCC-2998 colon) was greater than 100 µM and the TGI (HCT-116 colon) was greater than 100 µM. For the same molecule, the TGI (HCT-15 colon) was greater than 100 µM, the TGI (HL-60(TB) leukemia) was greater than 100 µM and the TGI (HOP-62 NSCLC) was greater than 100 µM. For the same molecule, the TGI (HOP-92 NSCLC) was greater than 100 µM, the TGI (HS 578T breast) was greater than 100 µM and the TGI (HT29 colon) was greater than 100 µM. For the same molecule, the TGI (IGROV1 ovarian) was greater than 100 µM, the TGI (K-562 leukemia) was greater than 100 µM and the TGI (KM12 colon) was greater than 100 µM. For the same molecule, the TGI (LOX IMVI melanoma) was greater than 100 µM, the TGI (M14 melanoma) was greater than 100 µM and the TGI (MCF7 breast) was greater than 100 µM. The TGI (MDA-MB-231 breast) was greater than 100 µM, the TGI (MDA-MB-435) was greater than 100 µM and the TGI (MDA-N) was greater than 100 µM. It also gave a TGI (MOLT-4 leukemia) greater than 100 µM, a TGI (NCI-H23 lung) greater than 100 µM and a TGI (NCI-H460 lung) greater than 100 µM. It also gave a TGI (NCI-H522 lung) greater than 100 µM, a TGI (NCI/ADR-RES ovarian) greater than 100 µM and a TGI (OVCAR-3 ovarian) greater than 100 µM. For the same molecule, the TGI (OVCAR-4 ovarian) was greater than 100 µM, the TGI (OVCAR-5 ovarian) was greater than 100 µM and the TGI (OVCAR-8 ovarian) was greater than 100 µM. It also gave a TGI (PC-3 prostate) greater than 100 µM, a TGI (RPMI-8226 leukemia) greater than 100 µM and a TGI (RXF 393 renal) greater than 100 µM. The TGI (SF-268 CNS) was greater than 100 µM, the TGI (SF-295 CNS) was greater than 100 µM and the TGI (SF-539 CNS) was greater than 100 µM. The TGI (SK-MEL-2 melanoma) was greater than 100 µM, the TGI (SK-MEL-28 melanoma) was greater than 100 µM and the TGI (SK-OV-3 ovarian) was greater than 100 µM. It also gave a TGI (SN12C renal) greater than 100 µM, a TGI (SNB-19 CNS) greater than 100 µM and a TGI (SNB-75 CNS) greater than 100 µM. For the same molecule, the TGI (SW-620 colon) was greater than 100 µM, the TGI (T-47D breast) was greater than 100 µM and the TGI (TK-10 renal) was greater than 100 µM. The TGI (U251 CNS) was greater than 100 µM, the TGI (UACC-257 melanoma) was greater than 100 µM and the TGI (UACC-62 melanoma) was greater than 100 µM.

Reference: PubChem BioAssay (NCI)
